Experimental data reported in patent publication US7981903B2, “2-[2-{phenylamino}-1H-pyrrolo[2,3-D]pyrimidin-4-yl)amino] benzamide derivatives as IGF-1R inhibitors for the treatment of cancer” (GlaxoSmithKline LLC, priority 2007, dated 2011).

Legend:
human IGF1R (hIGF1R) = target: T1, human IGF1R (hIGF1R) (Homo sapiens, UniProt P08069); assay: TR-FRET kinase assay of purified hIGF1R; assay type: biochemical; settings: activated hIGF1R 0.5 nM, 10 μM ATP, values given as pIC50 category, read-out: IGF-1R pIC50 (converted)
T1 construct: containing amino acid residues 957-1367 of human IGF1R; made in house; host or cells: Sf9 cells (baculovirus)
Protocol: (§1) Time Resolved Fluorescence Resonance Energy Transfer (TR-FRET) assays were carried out on the exemplified compounds as follows:
(§2) Purity is determined by HPLC. The calculated molecular mass of the peptide is 2216 dalton. Tyrosine phosphorylation by human IGF1R (hIGF1R) or human IR (hIR) occurs as indicated (Y*) in the peptide sequence described. Solid peptide sample is dissolved to approximately 1 mM in DMSO, aliquoted, and stored at −20° C. until use. True peptide concentration is determined by amino acid analysis.
hIGF1R: GST-rTEV-IGF-1R(957-1367) containing amino acid residues 957-1367 of human IGF1R (as annotated by National Center for Biotechnology Information (NCBI) accession number NP_000866) is purified from a baculovirus expression system in Sf9 cells using Glutathione Sepharose 4FF column chromatography followed by Sephadex-200 size exclusion column chromatography. […] Samples, in 25 mM Tris-HCl, 250 mM NaCl, 5% glycerol, 1 mM DTT, pH 7.5, are stored at −80° C. until use.
(§3) hIGF1R: Activation of GST-rTEV-IGF-1R(957-1367) is achieved by a 4 minute incubation of hIGF1R (2.7 μM final) with 2 mM ATP in 50 mM HEPES, 20 mM MgCL2, 0.1 mg/ml BSA, at room temperature. Autophosphorylation is stopped by addition of EDTA (to 100 mM final). Aliquoted samples are flash frozen in liquid nitrogen and stored at −80° C. until use.
(§4) Assays are performed in 384-well (Greiner, Catalog No. 784076) microtiter plates. Reaction buffer (50 mM HEPES buffer, pH 7.5; 10 mM MgCL2; 3 mM DTT; 1 mM CHAPS; 0.1 mg/ml BSA) for peptide phosphorylation (10 μl volume) contained, in final concentrations, 500 nM biotinylated peptide substrate; 10 μM ATP; and purified, activated hIGF1R or hIR (0.5 nM). Compounds, titrated in DMSO, are evaluated at eleven concentrations ranging from 50 μM to 0.2 nM. […] Reactions are incubated for 1 hour at room temperature and are stopped by a 5 μl addition of EDTA (to 33 mM). A further addition of 5 μl detection reagents (for final 7 nM Streptavidin-APC (Perkin Elmer #CR^130-150), 1 nM Europium-labeled anti-phosphotyrosine monoclonal antibody (PerkinElmer #AD0067), added in reaction buffer (without DTT), is required for signal generation. After 30 minutes, signal is read on PerkinElmer Viewlux microplate imager or Wallac Victor fluorometer.
(§5) The data for compound concentration responses were plotted as % Inhibition, calculated with the data reduction formula 100*(1-[(U1-C2)/(C1-C2)]), versus concentration of compound, where • U is the unknown value, • C1 is the average control value obtained for DMSO only, and • C2 is the average control value obtained for reactions stopped with EDTA at • t=0.
(§6) Data were fitted to the curve described by: y=((Vmax*x)/(K+x)) where • Vmax is the upper asymptote and • K is the IC50.

human IR (hIR) = target: T2, human IR (hIR) (Homo sapiens, UniProt P06213); assay: TR-FRET kinase assay of purified hIR; assay type: biochemical; settings: activated hIR 0.5 nM, 10 μM ATP, values given as pIC50 category
T2 construct: containing amino acid residues 979-1382 of human IR; made in house; host or cells: Sf9 cells (baculovirus), same process as hIGF1R
Protocol: as §1, §2
hIR: GST-rTEV-IR(979-1382) containing amino acid residues 979-1382 of human IR (as annotated by NCBI accession number NP_000199) is expressed and purified by the same process as hIGF1R. […] Samples, in 25 mM Tris-HCl, 250 mM NaCl, 5% glycerol, 1 mM DTT, pH 7.5, are stored at −80° C. until use.
as §3, with “hIR:” for “hIGF1R:”, “5” for “4”, “hIR” for “hIGF1R”, “100” for “50”, “10” for “20”
as §4, §5, §6

ALK = ALK (Homo sapiens, UniProt Q9UM73); assay: ALK enzyme assay (HTRF); assay type: biochemical; settings: 0.25 nM ALK, 15.0 μM ATP, values given as pIC50 category
Protocol: The method measures the ability of the isolated enzyme to catalyse the transfer of the gamma-phosphate from ATP onto the tyrosine residue of a biotinylated synthetic peptide. The extent of tyrosine phosphorylation was measured using an anti-phosphotyrosine antibody, and quantified by homogenous time-resolved fluorescence (HTRF) assay purchased from CisBio (62TK0PEJ).
Reactions were performed in black 384-well polystyrene low volume plates in a final volume of 5 μl.
The reactions were then started by adding the substrate mix. The reactions were allowed to proceed for 120 minutes at 20° C. The reactions were then terminated by the addition of 5 μl HTRF detection mix to each well. The final concentrations of the detection reagents were: 50 mM HEPES (pH7.0); 0.1% BSA; 0.8 M KF; 20 mM EDTA; 1 mM CHAPS; TK-antibody Europium Cryptate; and 41 nM streptavidin-XL665. Assay plates were left unsealed, stacked and incubated at 20° for 60 minutes. Quantification of activity was achieved by counting in an Envision Counter (PerkinElmer).
Compounds under analysis were dissolved in Me2SO to 1.0 mM and serially diluted 1 to 3 with Me2SO through twelve dilutions. 0.05 μl of each concentration was transferred to the corresponding well of an assay plate. This creates a final compound concentration range from 0.00017 to 10 μM.
The data for dose responses were plotted as % Inhibition calculated with the data reduction formula 100*(1-(U1-C2)/(C1-C2)) versus concentration of compound where U is the unknown value, C1 is the average control value obtained for 1% DMSO, and C2 is the average control value obtained for 0.1 M EDTA. Data were fitted with a curve described by:
[formula] where A is the minimum y, B is the maximum y concentration [M], D is the slope factor, and x is the log10 of the compound.

[1] = target: T3, NIH-3T3 cells overexpressing human IGF-1R (Homo sapiens, UniProt P08069); assay: IGF-1R cellular autophosphorylation (DELFIA); assay type: cell-based
T3 construct: expressed in transfected cells; host or cells: NIH-3T3 (mouse fibroblasts)
Protocol: NIH-3T3 cells overexpressing human IGF-1R or IR were plated in 96-well plates (10,000 cells/well) in culture media containing 10% fetal bovine serum and incubated at 37° C. in a 5% CO2 incubator. Twenty four hours post-plating, cells were treated with different concentrations of test compounds ranging from 30 uM to 1.5 nM. Two hours after compound addition, cells were stimulated with either human IGF-1 (30 ng/ml) or insulin (3 ug/ml) for 15 minutes. Cell lysates are analyzed for phosphorylated receptors using dissociation enhanced lanthanide fluor-immuno assay (DELFIA) with anti-IGF-1R (MAB391, R&D Systems, Minneapolis, Minn.) or anti-IRβ (sc-711, Santa Cruz Biotechnology, Santa Cruz, Calif.) capture antibody and europium-labeled anti-pTyr antibody (Eu-N1 PT66, Perkin Elmer, Waltham, Mass.) for detection. The fluorescence signal for cells treated with compounds was expressed as percent relative to 100% stimulation (IGF-1 or insulin stimulated signal).

T2 sequence (P06213 979-1382): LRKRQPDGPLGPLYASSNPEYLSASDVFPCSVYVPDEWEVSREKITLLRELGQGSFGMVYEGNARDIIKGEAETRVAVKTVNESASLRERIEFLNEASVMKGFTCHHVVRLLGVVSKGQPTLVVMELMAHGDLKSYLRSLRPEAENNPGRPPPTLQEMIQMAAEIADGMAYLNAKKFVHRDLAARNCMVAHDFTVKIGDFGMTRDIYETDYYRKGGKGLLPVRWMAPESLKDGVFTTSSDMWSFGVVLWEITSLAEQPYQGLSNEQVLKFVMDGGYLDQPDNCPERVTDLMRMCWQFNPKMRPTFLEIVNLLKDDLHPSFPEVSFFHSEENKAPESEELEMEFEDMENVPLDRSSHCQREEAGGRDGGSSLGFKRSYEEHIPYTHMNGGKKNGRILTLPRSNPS
T3 sequence (P08069 31-1367): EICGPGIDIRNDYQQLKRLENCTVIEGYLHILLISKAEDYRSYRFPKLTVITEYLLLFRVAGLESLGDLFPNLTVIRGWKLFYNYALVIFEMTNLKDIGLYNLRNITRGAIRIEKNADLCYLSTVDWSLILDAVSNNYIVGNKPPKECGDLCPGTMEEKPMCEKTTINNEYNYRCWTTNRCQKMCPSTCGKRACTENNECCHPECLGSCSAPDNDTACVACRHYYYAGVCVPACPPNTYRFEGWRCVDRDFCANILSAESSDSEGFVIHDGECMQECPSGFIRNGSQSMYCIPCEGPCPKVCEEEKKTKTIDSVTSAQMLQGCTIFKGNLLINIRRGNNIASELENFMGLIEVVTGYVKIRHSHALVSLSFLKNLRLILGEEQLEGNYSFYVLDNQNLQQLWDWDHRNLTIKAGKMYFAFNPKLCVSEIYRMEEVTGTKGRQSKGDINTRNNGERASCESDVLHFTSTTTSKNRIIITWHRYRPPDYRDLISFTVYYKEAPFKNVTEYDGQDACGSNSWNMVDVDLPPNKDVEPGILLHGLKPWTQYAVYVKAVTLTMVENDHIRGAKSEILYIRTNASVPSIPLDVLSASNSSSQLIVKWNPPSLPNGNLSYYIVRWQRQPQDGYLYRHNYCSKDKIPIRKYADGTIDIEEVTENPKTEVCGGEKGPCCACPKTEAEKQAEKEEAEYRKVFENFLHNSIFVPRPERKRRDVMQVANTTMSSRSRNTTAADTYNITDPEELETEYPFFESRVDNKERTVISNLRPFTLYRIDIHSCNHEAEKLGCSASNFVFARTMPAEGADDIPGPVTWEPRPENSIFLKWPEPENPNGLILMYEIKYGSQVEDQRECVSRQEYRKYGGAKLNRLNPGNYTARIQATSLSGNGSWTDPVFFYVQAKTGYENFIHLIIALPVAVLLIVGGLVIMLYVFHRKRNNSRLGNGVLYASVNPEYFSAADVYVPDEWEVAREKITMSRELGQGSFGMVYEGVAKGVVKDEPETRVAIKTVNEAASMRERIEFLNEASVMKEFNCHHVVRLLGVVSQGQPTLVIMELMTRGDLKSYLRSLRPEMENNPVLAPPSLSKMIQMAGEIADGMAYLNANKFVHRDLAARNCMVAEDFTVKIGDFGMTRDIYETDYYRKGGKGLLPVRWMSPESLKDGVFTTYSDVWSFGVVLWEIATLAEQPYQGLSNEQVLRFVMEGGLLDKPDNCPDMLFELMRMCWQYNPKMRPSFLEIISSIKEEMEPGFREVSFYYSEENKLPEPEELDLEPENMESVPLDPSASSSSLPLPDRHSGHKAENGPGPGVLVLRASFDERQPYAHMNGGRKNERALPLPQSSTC
Chain of ALK (Q9UM73 19-1620): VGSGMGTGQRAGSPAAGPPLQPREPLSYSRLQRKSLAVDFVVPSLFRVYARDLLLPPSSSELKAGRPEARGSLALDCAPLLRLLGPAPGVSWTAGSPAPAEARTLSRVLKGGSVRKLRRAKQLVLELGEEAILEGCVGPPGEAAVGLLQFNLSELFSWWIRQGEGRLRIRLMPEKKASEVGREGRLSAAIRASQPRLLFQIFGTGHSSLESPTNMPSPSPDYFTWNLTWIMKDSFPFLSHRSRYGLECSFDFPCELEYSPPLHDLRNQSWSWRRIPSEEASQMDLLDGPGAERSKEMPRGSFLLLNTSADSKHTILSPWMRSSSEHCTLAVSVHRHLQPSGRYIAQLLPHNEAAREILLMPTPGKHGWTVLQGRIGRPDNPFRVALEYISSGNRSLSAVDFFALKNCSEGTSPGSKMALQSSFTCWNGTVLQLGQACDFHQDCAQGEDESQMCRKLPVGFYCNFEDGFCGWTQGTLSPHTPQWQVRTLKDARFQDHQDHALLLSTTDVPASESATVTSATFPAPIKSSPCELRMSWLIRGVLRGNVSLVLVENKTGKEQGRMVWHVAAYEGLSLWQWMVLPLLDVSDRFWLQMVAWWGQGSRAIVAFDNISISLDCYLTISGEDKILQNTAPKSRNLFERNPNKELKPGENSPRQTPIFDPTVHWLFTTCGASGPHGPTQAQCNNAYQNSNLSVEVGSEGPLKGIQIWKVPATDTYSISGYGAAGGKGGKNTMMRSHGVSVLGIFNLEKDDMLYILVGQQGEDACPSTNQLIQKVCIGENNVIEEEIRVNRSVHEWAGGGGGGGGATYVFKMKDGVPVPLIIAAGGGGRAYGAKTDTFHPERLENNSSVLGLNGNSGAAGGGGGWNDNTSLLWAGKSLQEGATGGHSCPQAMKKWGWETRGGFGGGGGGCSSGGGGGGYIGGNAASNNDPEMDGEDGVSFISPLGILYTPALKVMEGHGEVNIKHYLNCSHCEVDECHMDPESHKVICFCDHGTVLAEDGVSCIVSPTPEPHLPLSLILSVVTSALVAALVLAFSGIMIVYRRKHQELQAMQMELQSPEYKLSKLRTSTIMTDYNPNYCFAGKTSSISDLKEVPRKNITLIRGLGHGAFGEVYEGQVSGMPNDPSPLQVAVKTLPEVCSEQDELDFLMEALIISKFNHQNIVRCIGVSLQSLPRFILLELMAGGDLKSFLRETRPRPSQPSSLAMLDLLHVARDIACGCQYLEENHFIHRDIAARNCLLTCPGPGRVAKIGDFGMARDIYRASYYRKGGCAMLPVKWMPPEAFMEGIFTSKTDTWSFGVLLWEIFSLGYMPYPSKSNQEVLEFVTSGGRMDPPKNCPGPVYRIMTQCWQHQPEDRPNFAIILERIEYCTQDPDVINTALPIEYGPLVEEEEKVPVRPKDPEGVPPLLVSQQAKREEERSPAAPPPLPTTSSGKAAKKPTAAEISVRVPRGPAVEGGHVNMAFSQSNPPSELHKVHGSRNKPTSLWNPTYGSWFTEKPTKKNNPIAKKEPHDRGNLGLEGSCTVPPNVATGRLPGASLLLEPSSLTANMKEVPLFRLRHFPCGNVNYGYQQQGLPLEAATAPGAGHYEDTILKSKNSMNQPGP
T1 sequence (P08069 957-1367): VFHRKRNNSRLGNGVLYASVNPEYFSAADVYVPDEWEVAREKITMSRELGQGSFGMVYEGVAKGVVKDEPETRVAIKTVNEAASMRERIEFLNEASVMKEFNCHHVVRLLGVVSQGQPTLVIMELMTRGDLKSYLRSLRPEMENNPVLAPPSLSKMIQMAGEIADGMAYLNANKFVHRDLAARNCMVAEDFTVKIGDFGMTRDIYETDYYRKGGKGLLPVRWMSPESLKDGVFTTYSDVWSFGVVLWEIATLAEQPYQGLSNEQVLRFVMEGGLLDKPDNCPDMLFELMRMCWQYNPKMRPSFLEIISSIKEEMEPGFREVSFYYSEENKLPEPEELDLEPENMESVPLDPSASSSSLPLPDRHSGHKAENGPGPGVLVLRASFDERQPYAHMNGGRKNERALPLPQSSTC

IC50 (human IGF1R (hIGF1R)) | IC50 (human IR (hIR)) | IC50 (ALK) | IC50 [1] | SMILES
0.251 to 1 nM | 0.251 to 1 nM | 0.251 to 1 nM | < 100 nM | COc1cc(C2=CCCN(C)C2)ccc1Nc1nc(Nc2ccccc2C(N)=O)c2cc[nH]c2n1 [Example 4, 2-[(2-{[2-(methyloxy)-4-(1-methyl-1,2,5,6-tetrahydro-3-pyridinyl)phenyl]amino}-1H-pyrrolo[2,3-d]pyrimidin-4-yl)amino]benzamide]
0.251 to 1 nM | 0.251 to 1 nM | 0.251 to 1 nM | < 100 nM | COc1cc(C2CCCN(C)C2)ccc1Nc1nc(Nc2ccccc2C(N)=O)c2cc[nH]c2n1 (stereo not drawn) [Example 5, 2-[(2-{[2-(methyloxy)-4-(1-methyl-3-piperidinyl)phenyl]amino}-1H-pyrrolo[2,3-d]pyrimidin-4-yl)amino]benzamide]
0.251 to 1 nM | 0.251 to 1 nM | 0.251 to 1 nM | < 100 nM | COc1cc(C2=CCCN(C(C)C)C2)ccc1Nc1nc(Nc2ccccc2C(N)=O)c2cc[nH]c2n1 [Example 6, 2-[(2-{[4-[1-(1-methylethyl)-1,2,5,6-tetrahydro-3-pyridinyl]-2-(methyloxy)phenyl]amino}-1H-pyrrolo[2,3-d]pyrimidin-4-yl)amino]benzamide]
1.26 to 3.98 nM | 1.26 to 3.98 nM | 1.26 to 3.98 nM | 100 to 500 nM | Cc1cc(N2CCOCC2)ccc1Nc1nc(Nc2ccccc2C(N)=O)c2cc[nH]c2n1 [Example 11, 2-[(2-{[2-methyl-4-(4-morpholinyl)phenyl]amino}-1H-pyrrolo[2,3-d]pyrimidin-4-yl)amino]benzamide]
1.26 to 3.98 nM | 0.251 to 1 nM | 0.251 to 1 nM | 100 to 500 nM | CNC(=O)c1ccccc1Nc1nc(Nc2ccc(C3=CCCN(C)C3)cc2OC)nc2[nH]ccc12 [Example 21, N-methyl-2-[(2-{[2-(methyloxy)-4-(1-methyl-1,2,5,6-tetrahydro-3-pyridinyl)phenyl]amino}-1H-pyrrolo[2,3-d]pyrimidin-4-yl)amino]benzamide]
1.26 to 3.98 nM | 0.251 to 1 nM | 0.251 to 1 nM | 100 to 500 nM | CNC(=O)c1ccccc1Nc1nc(Nc2ccc(C3CCCN(C)C3)cc2OC)nc2[nH]ccc12 (stereo not drawn) [Example 22, N-methyl-2-[(2-{[2-(methyloxy)-4-(1-methyl-3-piperidinyl)phenyl]amino}-1H-pyrrolo[2,3-d]pyrimidin-4-yl)amino]benzamide]
1.26 to 3.98 nM | 1.26 to 3.98 nM | 0.251 to 1 nM | 100 to 500 nM | CNC(=O)c1ccccc1Nc1nc(Nc2ccc(N3CCN(C(C)C)CC3)cc2OC)nc2[nH]ccc12 [Example 25, N-methyl-2-[(2-{[4-[4-(1-methylethyl)-1-piperazinyl]-2-(methyloxy)phenyl]amino}-1H-pyrrolo[2,3-d]pyrimidin-4-yl)amino]benzamide]
5.01 to 200 nM | 1.26 to 3.98 nM | 5.01 to 200 nM | > 500 nM | Cc1ccc(NC(=O)CN(C)C)cc1Nc1nc(Nc2ccccc2C(=O)NCCO)c2cc[nH]c2n1 [Example 26, 2-{[2-({5-[(N,N-dimethylglycyl)amino]-2-methylphenyl}amino)-1H-pyrrolo[2,3-d]pyrimidin-4-yl]amino}-N-(2-hydroxyethyl)benzamide]
0.251 to 1 nM | 0.251 to 1 nM | 0.251 to 1 nM | > 500 nM | Cc1ccc(NC(=O)CN(C)C)cc1Nc1nc(Nc2ccccc2C(=O)NO)c2cc[nH]c2n1 [Example 28, 2-{[2-({5-[(N,N-dimethylglycyl)amino]-2-methylphenyl}amino)-1H-pyrrolo[2,3-d]pyrimidin-4-yl]amino}-N-hydroxybenzamide]
5.01 to 200 nM | 5.01 to 158 nM | 5.01 to 200 nM | > 500 nM | COc1cc(N2CCN(C(C)C)CC2)ccc1Nc1nc(Nc2cccc(C)c2C(N)=O)c2cc[nH]c2n1 [Example 31, 2-methyl-6-[(2-{[4-[4-(1-methylethyl)-1-piperazinyl]-2-(methyloxy)phenyl]amino}-1H-pyrrolo[2,3-d]pyrimidin-4-yl)amino]benzamide]
1.26 to 3.98 nM | 1.26 to 3.98 nM | 0.251 to 1 nM | > 500 nM | CCCN1CCC=C(c2ccc(Nc3nc(Nc4ccc(C)cc4C(N)=O)c4cc[nH]c4n3)c(OC)c2)C1 [Example 33, 5-methyl-2-[(2-{[2-(methyloxy)-4-(1-propyl-1,2,5,6-tetrahydro-3-pyridinyl)phenyl]amino}-1H-pyrrolo[2,3-d]pyrimidin-4-yl)amino]benzamide]
1.26 to 3.98 nM | 1.26 to 3.98 nM | 0.251 to 1 nM | 100 to 500 nM | CCCN1CCC=C(c2ccc(Nc3nc(Nc4ccc(OC)cc4C(N)=O)c4cc[nH]c4n3)c(OC)c2)C1 [Example 38, 5-(methyloxy)-2-[(2-{[2-(methyloxy)-4-(1-propyl-1,2,5,6-tetrahydro-3-pyridinyl)phenyl]amino}-1H-pyrrolo[2,3-d]pyrimidin-4-yl)amino]benzamide]
